Source: ChEMBL document CHEMBL3885881, “DrugMatrix”

Organism: Rattus norvegicus
Assay: DrugMatrix - Regimen: Daily Repeat
Assay type: toxicity, organism-based, Sprague-Dawley
Design: regimen Daily Repeat, gender Male, age 6-8 weeks
Conditions: in vivo, sc, 0 mg/kg, route mini-PUMP - SUBCUTANEOUS, dose level Control, vehicle 100 % SALINE; for ABSOLUTE BASOPHIL / ABSOLUTE EOSINOPHIL / ABSOLUTE LYMPHOCYTE / ABSOLUTE MONOCYTE / ABSOLUTE SEGMENTED NEUTROPHIL / BASOPHIL / EOSINOPHIL / ERYTHROCYTE COUNT / HEMATOCRIT / HEMOGLOBIN / LEUKOCYTE COUNT / LYMPHOCYTE / MEAN CORPUSCULAR HEMOGLOBIN / MEAN CORPUSCULAR HEMOGLOBIN CONCENTRATION / MEAN CORPUSCULAR VOLUME / MONOCYTE / NEUTROPHIL / NUCLEATED RED BLOOD CELLS / PLATELET COUNT: tissue Blood; for ALANINE AMINOTRANSFERASE / ALBUMIN / ALKALINE PHOSPHATASE / ASPARTATE AMINOTRANSFERASE / BLOOD UREA NITROGEN / CARBON DIOXIDE / CHLORIDE / CHOLESTEROL / CREATININE / GLUCOSE / LACTATE DEHYDROGENASE / LIPASE / PHOSPHORUS / POTASSIUM / SODIUM / TOTAL BILIRUBIN / TOTAL PROTEIN / URIC ACID: tissue Plasma

## CNC[C@H](O)c1cccc(O)c1 [PHENYLEPHRINE]
72 h, time 3 day
  ABSOLUTE BASOPHIL: 0 CELLS/uL
  ABSOLUTE EOSINOPHIL: 77.17 CELLS/uL
  ABSOLUTE LYMPHOCYTE: 14293.83 CELLS/uL
  ABSOLUTE MONOCYTE: 354 CELLS/uL
  ABSOLUTE SEGMENTED NEUTROPHIL: 1658.33 CELLS/uL
  BASOPHIL: 0%
  EOSINOPHIL: 0.5%
  ERYTHROCYTE COUNT: 6.27 x10E6/uL
  HEMATOCRIT: 36.95%
  HEMOGLOBIN: 13.4 G/DL
  LEUKOCYTE COUNT: 16.38 x10E3/uL
  LYMPHOCYTE: 87.17%
  MEAN CORPUSCULAR HEMOGLOBIN: 21.42 pg
  MEAN CORPUSCULAR HEMOGLOBIN CONCENTRATION: 36.27 G/DL
  MEAN CORPUSCULAR VOLUME: 59.03 fL
  MONOCYTE: 2%
  NEUTROPHIL: 10.33%
  NUCLEATED RED BLOOD CELLS: 0 /100WBC
  PLATELET COUNT: 904.67 x10E3/uL
  ALANINE AMINOTRANSFERASE: 48.33 u/L
  ALBUMIN: 3.82 G/DL
  ALKALINE PHOSPHATASE: 282.33 u/L
  ASPARTATE AMINOTRANSFERASE: 86.83 u/L
  BLOOD UREA NITROGEN: 20.17 mg/dL
  CARBON DIOXIDE: 34.67 mmol/L
  CHLORIDE: 102 MEQ/L
  CHOLESTEROL: 71.5 mg/dL
  CREATININE: 0.2 mg/dL
  GLUCOSE: 136.83 mg/dL
  LACTATE DEHYDROGENASE: 159 u/L
  LIPASE: 9 u/L
  PHOSPHORUS: 10.12 mg/dL
  POTASSIUM: 5.92 MEQ/L
  SODIUM: 147.8 MEQ/L
  TOTAL BILIRUBIN: 0.2 mg/dL
  TOTAL PROTEIN: 6.05 G/DL
  URIC ACID: 1.4 mg/dL
120 h, time 5 day
  ABSOLUTE BASOPHIL: 0 CELLS/uL
  ABSOLUTE EOSINOPHIL: 0 CELLS/uL
  ABSOLUTE LYMPHOCYTE: 14257.33 CELLS/uL
  ABSOLUTE MONOCYTE: 326 CELLS/uL
  ABSOLUTE SEGMENTED NEUTROPHIL: 3216.67 CELLS/uL
  BASOPHIL: 0%
  EOSINOPHIL: 0%
  ERYTHROCYTE COUNT: 6.11 x10E6/uL
  HEMATOCRIT: 36.22%
  HEMOGLOBIN: 13.18 G/DL
  LEUKOCYTE COUNT: 17.8 x10E3/uL
  LYMPHOCYTE: 80.5%
  MEAN CORPUSCULAR HEMOGLOBIN: 21.62 pg
  MEAN CORPUSCULAR HEMOGLOBIN CONCENTRATION: 36.42 G/DL
  MEAN CORPUSCULAR VOLUME: 59.37 fL
  MONOCYTE: 1.83%
  NEUTROPHIL: 17.67%
  NUCLEATED RED BLOOD CELLS: 0 /100WBC
  PLATELET COUNT: 1311 x10E3/uL
  ALANINE AMINOTRANSFERASE: 47 u/L
  ALBUMIN: 3.83 G/DL
  ALKALINE PHOSPHATASE: 260.33 u/L
  ASPARTATE AMINOTRANSFERASE: 76.17 u/L
  BLOOD UREA NITROGEN: 14.67 mg/dL
  CARBON DIOXIDE: 31.33 mmol/L
  CHLORIDE: 101.17 MEQ/L
  CHOLESTEROL: 75 mg/dL
  CREATININE: 0.16 mg/dL
  GLUCOSE: 152.67 mg/dL
  LACTATE DEHYDROGENASE: 147.33 u/L
  LIPASE: 9.33 u/L
  PHOSPHORUS: 10.97 mg/dL
  POTASSIUM: 6 MEQ/L
  SODIUM: 145.52 MEQ/L
  TOTAL BILIRUBIN: 0.17 mg/dL
  TOTAL PROTEIN: 5.83 G/DL
  URIC ACID: 1.27 mg/dL
[…], time 14 day
  ABSOLUTE BASOPHIL: 0 CELLS/uL
  ABSOLUTE EOSINOPHIL: 64.5 CELLS/uL
  ABSOLUTE LYMPHOCYTE: 12507.83 CELLS/uL
  ABSOLUTE MONOCYTE: 380.33 CELLS/uL
  ABSOLUTE SEGMENTED NEUTROPHIL: 2414 CELLS/uL
  BASOPHIL: 0%
  EOSINOPHIL: 0.5%
  ERYTHROCYTE COUNT: 6.1 x10E6/uL
  HEMATOCRIT: 35.4%
  HEMOGLOBIN: 12.88 G/DL
  LEUKOCYTE COUNT: 15.37 x10E3/uL
  LYMPHOCYTE: 80.83%
  MEAN CORPUSCULAR HEMOGLOBIN: 21.18 pg
  MEAN CORPUSCULAR HEMOGLOBIN CONCENTRATION: 36.43 G/DL
  MEAN CORPUSCULAR VOLUME: 58.17 fL
  MONOCYTE: 2.17%
  NEUTROPHIL: 16.5%
  NUCLEATED RED BLOOD CELLS: 0.17 /100WBC
  PLATELET COUNT: 1016 x10E3/uL
  ALANINE AMINOTRANSFERASE: 53.33 u/L
  ALBUMIN: 3.93 G/DL
  ALKALINE PHOSPHATASE: 319.83 u/L
  ASPARTATE AMINOTRANSFERASE: 84 u/L
  BLOOD UREA NITROGEN: 15.5 mg/dL
  CARBON DIOXIDE: 34 mmol/L
  CHLORIDE: 101.83 MEQ/L
  CHOLESTEROL: 57 mg/dL
  CREATININE: 0.21 mg/dL
  GLUCOSE: 182.33 mg/dL
  LACTATE DEHYDROGENASE: 104.67 u/L
  LIPASE: 9.17 u/L
  PHOSPHORUS: 11.12 mg/dL
  POTASSIUM: 5.81 MEQ/L
  SODIUM: 144.85 MEQ/L
  TOTAL BILIRUBIN: 0.18 mg/dL
  TOTAL PROTEIN: 5.92 G/DL
  URIC ACID: 1.38 mg/dL
